Km data for one compound are collected here from paper PMC12770603 (Scientific Reports, 2025).

Usually Km stands for the substrate concentration at which the rate is half of its maximum.

The assay has as its system EstN3. Description: p-nitrophenol release at […] nm, Michaelis-Menten non-linear fit. It is filed as biochemical, uncultured bacterium. The following applies: pH 7.0, 37 °C, 15 min.

Consider `CCCCC(=O)Oc1ccc([N+](=O)[O-])cc1` [pNP-valerate], for which the Michaelis constant (Km) worked out at 1520 µM.
